These results are taken from the METLIN SMRT retention time set (Domingo-Almenara et al. 2019).

A short description of this series: gradient 5% acetonitrile 3 min, to 50% in 2 min, to 85% in 15 min, held 3 min, 100 µL/min. The conditions noted are these: column: Zorbax Extend-C18 2.1 x 50 mm; eluents: water / acetonitrile, 0.1% formic acid. In outline: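 Over 3 months, pure standards in mixtures of ~100 molecules were run by HPLC coupled to a quadrupole time-of-flight mass spectrometer in positive and negative ionization mode. The column was a Zorbax Extend-C18 (2.1 × 50 mm, 1.8 μm) at 100 μL/min, eluted with water and acetonitrile each holding 0.1% formic acid, with 40 μL dead and 900 μL dwell volumes. Retention time was determined from adduct peaks chosen by software and checked manually.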
`O=C(CSc1nnc(N2CCN(C(=O)c3cccs3)CC2)s1)NCc1ccco1` displayed an RP-LC retention time of 642 s. For `CCOc1ccc(NC(=O)C2CCN(c3c(C(=O)N(CC)CC)cnc4snc(C)c34)CC2)cc1` the value was 882 s; for `CCc1nc2c(c(=O)n1CC(=O)NCc1cccs1)CN(Cc1ccccc1)CC2`, 624 s; for `COc1cccc(-n2c(N3CCCC(C(=O)NCc4ccc(C)o4)C3)nc3ccsc3c2=O)c1` (stereo not given), 849 s. As to `Cc1c(S(=O)(=O)N2CCOCC2)cc(C(=O)N2CCCC2)n1C`, the RP-LC retention time came out at 658 s. The result for `CCOc1ccccc1C(=O)Nc1cccn2c(C)nnc12` reads 790 s; that for `CC1CCN(S(=O)(=O)c2cc(C(=O)N3CCN(c4ccc(F)cc4)CC3)n(C)c2)CC1`, 1010 s; that for `O=C(Nc1ccc(F)cc1F)C1CCCN(S(=O)(=O)Cc2ccccc2)C1` (stereo not given), 933 s. For `O=C(NCCSCc1ccco1)c1cc(-c2cccnc2)nc2ccccc12` the value was 738 s. For `O=C(CCc1c[nH]c2ccccc12)NCCc1c[nH]c2ccc(Cl)cc12` the value was 861 s; for `COc1ccc(Oc2cc3c(cc2NS(=O)(=O)c2ccc(OC)c(OC)c2)n(C)c(=O)n3C)cc1`, 821 s; for `Cc1ccc(C)c(N2CCN(C(=O)c3cn(-c4ccc(NC(=O)C5CC5)cn4)cn3)CC2)c1`, 900 s. Take `Cn1ncc2c(Nc3ccccc3Cl)nc(Cl)nc21`: the RP-LC retention time worked out at 891 s. For `COc1cc(OC)cc(C(=O)Nc2ccc3c(c2)Sc2ncccc2C(=O)N3C)c1` the value was 858 s; for `COc1ccc(C2C(C(=O)NC(C)C)c3cc(OC)c(OC)cc3C(=O)N2C)cc1OC` (stereo not given), 662 s; for `Cc1cc(NC(=O)c2cc(C)n3nccc3n2)ccc1F`, 942 s. Turning to `CCc1nnc2ccc(NC(=O)Nc3ccc(C)cc3)cn12`, the RP-LC retention time is 710 s. The result for `O=c1c2nnn(-c3cccc(F)c3)c2ncn1Cc1cccnc1` reads 587 s; that for `Cc1ccc(-c2nc(NC(=O)c3cc4ccccc4o3)sc2C)cc1`, 1220 s; that for `Cc1ccc(CNC(=O)C2(C)Cn3nc(C(=O)NCCN4CCCC4)cc3C(=O)N2C)cc1` (stereo not given), 608 s. Take `CCc1nc(-c2nnn(-c3ccc(F)cc3)c2C)no1`: the RP-LC retention time came out at 874 s. For `CCc1nc(OCC(=O)Nc2cc(OC)cc(OC)c2)c2ccccc2n1` the value was 720 s; for `CCC(=O)NCc1nc2c(n1CC)CN(S(=O)(=O)c1ccccc1F)CC2`, 561 s. In turn, `COc1cccc(CC(=O)N2CCN3CCS(=O)(=O)N(C4CC4)C(=O)C3C2)c1` (stereo not given) had an RP-LC retention time of 747 s.

`CCOc1ccccc1NC(=O)Cn1c(N2CCOCC2)nc(COC)cc1=O` registered an RP-LC retention time of 967 s.

`CCC(C)C(=O)N1CCCN(C2=NS(=O)(=O)C(c3ccc(F)cc3)=C2C)CC1` (stereo not given) had an RP-LC retention time of 795 s. In the case of `Cc1ccc(Nc2c(-c3ccc(N(C)C)cc3)nc3ncccn23)cc1Cl`, the RP-LC retention time stood at 805 s. For `Cc1cc(C)n(-c2ccc(=O)n(CCNC(=O)c3cncc(Br)c3)n2)n1` the value was 636 s. The result for `O=C(Cn1c(=O)oc2ccccc21)N1CCN(C(=O)C2CC2c2cccs2)CC1` (stereo not given) reads 738 s; that for `Cc1cccc(C2CCCN2C(=O)c2nc3nc(C)cc(C(F)F)n3n2)c1` (stereo not given), 841 s. The result for `CC(O)(CNC(=O)NCc1cccs1)C1CC1` (stereo not given) reads 632 s; that for `CN1c2cc(F)ccc2C(=O)NC12CCN(C(=O)Nc1ccc3c(c1)OCCO3)CC2`, 725 s. Take `O=C(NCC1(c2nc(-c3ccccc3)cs2)CCOCC1)c1cccc(-c2noc(C(F)(F)F)n2)c1`: the RP-LC retention time is 1310 s. For the molecule `O=C(NCc1ccc(F)cc1F)c1cnn2c(-c3ccc4c(c3)OCO4)ccnc12`, the RP-LC retention time amounted to 1000 s. `CCn1cc(CCNC(=O)Nc2ccc(C)c(C)c2)c2cccnc21` registered an RP-LC retention time of 762 s. As to `COC(=O)Nc1ccc2[nH]cc(CCNC(C)=O)c2c1`, the RP-LC retention time turned out to be 673 s. The molecule `CCn1cc(-c2nc(CC(=O)Nc3cc(F)ccc3F)cs2)c2cccnc21` showed an RP-LC retention time of 1020 s. `Cc1nc(-c2cn(C)c3ncccc23)sc1C(=O)NCc1ccc2c(c1)OCO2` registered an RP-LC retention time of 826 s. The result for `O=C(CSc1ccc(-n2ccnc2)nn1)Nc1ccc(OC(F)(F)F)cc1` reads 618 s; that for `Cn1c(=O)c(N2CCC(NC(=O)Nc3ccc(F)c(Cl)c3)CC2)nc2ccccc21`, 971 s. Consider `CN(C)c1ccc(C(CNC(=O)COc2ccc(Cl)cc2)N(C)C)cc1` (stereo not given), for which the RP-LC retention time was determined as 683 s. The result for `Cc1ccc(N2CCN(C(=O)c3cn4cccc(C)c4n3)CC2)cc1` reads 682 s; that for `O=C(CCSc1ccc(F)cc1)Nc1nc2c(s1)CCC2`, 878 s; that for `COc1ccc(-c2csc(NCCc3ccc(OC)c(OC)c3)n2)cc1`, 792 s.

Molecule `CCCNC(=O)N1CC(Oc2ccc(-c3nc(C)no3)cc2)C1` had an RP-LC retention time of 745 s. For `O=C(Cn1cc(-c2nnc(-c3ccco3)o2)c2ccccc21)N1CCCC1` the value was 724 s. The result for `COc1cc(OC)c(NC(=O)N2CCC(n3c(C)nc4cccnc43)CC2)cc1Cl` reads 711 s.

For `COc1ccc(C2CC(=O)N(c3ccc(Cl)cc3)C(=O)C2)cc1OC`, the RP-LC retention time was 859 s. The result for `CCC(C)NC(=O)c1cc2c(s1)CCN(C(=O)c1ccc(F)cc1)C2` (stereo not given) reads 804 s; that for `O=c1ccc(N2CCC(NS(=O)(=O)c3cccnc3)C2)nn1CCOc1ccccc1` (stereo not given), 738 s. `NC(=O)Cn1cnc2nc(N3CCC(C(=O)NC4CC4)CC3)sc2c1=O` displayed an RP-LC retention time of 566 s.

`CC(C)CC(NC(=O)[C@H]1CCCN1C(=O)OCc1ccccc1)C(=O)NCC(=O)NO` (stereo not given in full): the RP-LC retention time is 648 s. For `CN1Cc2ccccc2-n2ccnc2C12CCN(C(=O)c1cccc(F)c1)CC2` the value was 614 s; for `Cc1cc2nn(CC(=O)N(C)c3ccccc3)c(=O)n2c(Nc2ccc(C)c(C)c2)n1`, 1100 s. For `COC(=O)CNC(=O)Nc1ccccc1-c1cc2ccccc2[nH]1` the value was 810 s; for `COc1ccc(OC)c(Nc2c(C(=O)N3CCCC3)cnc3nc(C)ccc23)c1`, 601 s. In turn, `CCn1ccc2oc(C)c(C(=O)NCc3cccc(Br)c3)c2c1=O` gave an RP-LC retention time of 1060 s. The result for `COC(=O)c1sccc1NC(=O)N1CCc2c([nH]c3ccccc23)C1c1ccc(F)cc1` (stereo not given) reads 1300 s; that for `Cc1ccc(C(=O)NC2CCN(c3cc(-c4ccc(Cl)cc4)[nH]n3)C2)cc1` (stereo not given), 821 s.

In turn, `O=C(CCN1CCN(CCO)CC1)N1c2ccccc2Sc2ccc(C(F)(F)F)cc21` returned an RP-LC retention time of 673 s. The result for `CCCCNC(=O)Cn1c(=O)c2cnc(-c3ccc(Cl)cc3)nc2n(CC)c1=O` reads 1050 s. For `CCCCS(=O)(=O)N1CCC2(CC1)NCCCN=C2Nc1cccc(F)c1` the value was 677 s; for `CCOC(=O)c1nc(NCc2ccccc2Cl)c2ccccc2n1`, 834 s. The result for `C=CCN1CC(c2nc3ccccc3n2CC(O)COc2cccc(C)c2)CC1=O` (stereo not given) reads 721 s. `CCCn1cnc2ccc(-c3noc(C(C)NC(=O)c4ccco4)n3)cc21` (stereo not given): the RP-LC retention time turned out to be 584 s. For `CCCS(=O)(=O)N1CCOc2ccc(CN3CCc4ccccc4C3)cc2C1` the value was 596 s. For `CCOC(=O)C(C(=O)N1CCN(C)CC1)C1CCCCC1` (stereo not given) the value was 629 s; for `O=C(NCc1ccc2c(c1)OCO2)c1cn2c(n1)CSCC2`, 650 s.

As to `CCOc1ccc(-c2noc(Cc3nc(-c4ccc5c(c4)OCO5)cs3)n2)cc1`, the RP-LC retention time amounted to 1200 s. The result for `Cc1nc(C)c(C(=O)N2CCC(N3C[C@H](O)C[C@H]3C(=O)NC3CCCCC3)CC2)s1` reads 574 s; that for `CC(C)n1nc(CNC(=O)c2ccco2)c2ccccc21`, 788 s; that for `COc1ccc(C2=Nc3ccccc3N(CC(=O)Nc3ccc4c(c3)OCO4)C(=O)C2)cc1`, 895 s. For `Cc1ccc(C(=O)N2C[C@@H]3C[C@H](NC(=O)c4ccccc4)[C@H]2C3)cc1F` the value was 811 s; for `CCCCOc1ccc(-c2nc(C3CC(=O)N(c4ccc(F)c(Cl)c4)C3)no2)cc1` (stereo not given), 1370 s; for `Cc1csc(-c2cc(S(=O)(=O)NC3CCCCC3)cn2CC(=O)N2CCCCC2)n1`, 1010 s. The result for `O=C(NC1CCCCCC1)C1CCCN(c2ncc(-c3ccc(F)cc3)cn2)C1` (stereo not given) reads 1150 s; that for `Cc1ccc(Nc2nc(C(=O)NC3CCCCC3)nc3ccccc23)cc1`, 906 s. Take `O=S(=O)(NCC1CCCO1)c1cccc2cccnc12` (stereo not given): the RP-LC retention time came out at 680 s.

Turning to `COCCNS(=O)(=O)c1cccc(-c2nc(-c3ccc(C)cc3)no2)c1`, the RP-LC retention time turned out to be 1060 s. The result for `COc1cccc(CC(=O)N2CCC(C(=O)NCc3csc(-c4cccs4)n3)CC2)c1` reads 774 s.
